Assays:
Rac1 = experiment: Mitochondrial Rac1 import, immunoblot for Flag-Rac1 in isolated mitochondria of transfected macrophages; format: cell-based; settings: for localization of Rac1 to the mitochondria: Example 2, FIG. 8D
Experimental: (§1) Mitochondria were isolated as previously described (He, C., et al., Mitochondrial Cu,Zn-Superoxide Dismutase Mediates Pulmonary Fibrosis by Augmenting H2O2 Generation. J Biol Chem, 2011. 286(17): p. 15597-607).
(§2) Whole cells lysates and sub-cellular fractions were separated by SDS-PAGE and transferred to PVDF membranes. Immunoblot analyses on the membranes were performed with the designated antibodies followed by the appropriate secondary antibody cross-linked to HRP.
(§3) To determine if DGBP inhibits Rac1 import into mitochondria, we exposed macrophages to vehicle (water) or DGBP in cells transfected with an empty control or a wild-type Rac1 expression vector (pRK-Flag-Rac1). […] To confirm that DGBP reduced Rac1 import secondary to inhibiting geranylgeranylation, an immunoblot analysis for Rap 1A, which only recognizes non-geranylgeranylated proteins and is indicative of reduced GGPP levels was performed (Weivoda, M. M. and R. J. Hohl, The effects of direct inhibition of geranylgeranyl pyrophosphate synthase on osteoblast differentiation. J Cell Biochem, 2011. 112(6): p. 1506-13, Wasko, B. M., A. Dudakovic, and R. J. Hohl, Bisphosphonates induce autophagy by depleting geranylgeranyl diphosphate. J Pharmacol Exp Ther, 2011. 337(2): p. 540-6). […] To examine whether DGBP altered H2O2 levels, cells were treated similarly as above described with DGBP (10 mM).

[1] = Apparent toxicity at the concentrations and doses used in the studies; settings: in vitro or in vivo
[2] = test system: bleomycin-induced pulmonary fibrosis; experiment: Progression of bleomycin-induced pulmonary fibrosis in mice, osmotic pumps installed seven days after bleomycin; format: in vivo
Experimental: (§4) Wild-type C57Bl/6 mice were from Jackson Laboratories (Bar Habor, Me.). The University of Iowa Institutional Animal Care and Use Committee approved all protocols. After equilibration, osmotic pumps (Alzet, Cupertino, Calif.) containing either vehicle (water) or DGBP (0.2 mg/kg/day) were implanted subcutaneously, as describe previously (Erickson, J. R., et al., A dynamic pathway for calcium-independent activation of CaMKII by methionine oxidation. Cell, 2008. 133(3): p. 462-74). Bleomycin (2.0 U/kg) or chrysotile ([…]) was administered intratracheally. Mice were euthanized and fibrosis determined as previously described (Osborn-Heaford, H. L., et al., Mitochondrial Rac1 GTPase Import and Electron Transfer from Cytochrome c Are Required for Pulmonary Fibrosis. The Journal of biological chemistry, 2012. 287(5): p. 3301-12, He, C., et al., Accelerated Development of Pulmonary Fibrosis via Cu,Zn-superoxide Dismutase-induced Alternative Activation of Macrophages. J Biol Chem, 2013. 288(28): p. 20745-57).
Lung tissue was dried to stable weight and acid hydrolyzed with 6N HCl for 24 h at 120° C. […]

HLF-1 cells = experiment: Mitochondrial H2O2 generation in HLF-1 cells exposed to chrysotile (pHPA assay); format: cell-based; settings: FIG. 11H, DGBP 10 μM overnight, presence or absence of chrysotile
Experimental: (§5) THP-1, MLE-12, and HLF-1 cell lines were obtained from American Type Culture Collection (Manassas, Va.). Cells were maintained in RPMI-1640, Hites, or F-12K media supplemented with fetal bovine serum and penicillin/streptomycin. All experiments were performed with media supplemented with 0.5% serum.
(§6) Extracellular H2O2 production was determined fluorometrically, as previously described (He, C., et al., Mitochondrial Cu,Zn-Superoxide Dismutase Mediates Pulmonary Fibrosis by Augmenting H2O2 Generation. J Biol Chem, 2011. 286(17): p. 15597-607). Briefly, cells were incubated in phenol-red free Hanks' balanced salt solution supplemented with 6.5 mM glucose, 1 mM HEPES, 6 mM sodium bicarbonate, 1.6 mM pHPA, and 0.95 μg/ml HRP. Fluorescence of the pHPA-dimer was measured using a spectrofluorometer at excitation of 320 nm and emission of 400 nm. Mitochondrial H2O2 was measured by resuspending mitochondria in phenol-red free Hanks' balanced salt solution supplemented with 6.5 mM glucose, 1 mM HEPES, 6 mM sodium bicarbonate, 1.6 mM pHPA, 0.95 μg/ml HRP and 5 mM α-ketoglutarate.
(§7) Mitochondria were isolated as previously described (He, C., et al., Mitochondrial Cu,Zn-Superoxide Dismutase Mediates Pulmonary Fibrosis by Augmenting H2O2 Generation. J Biol Chem, 2011. 286(17): p. 15597-607). […]

THP-1 cells = experiment: Mitochondrial H2O2 generation in THP-1 cells exposed to chrysotile (pHPA assay); format: cell-based; settings: FIG. 11F, DGBP 10 μM overnight, chrysotile 10 μg/cm^2 for 1 h
Experimental: as §5, §6, §7

Macrophages [3] = experiment: H2O2 generation in macrophages exposed to chrysotile asbestos (pHPA assay); format: cell-based
Experimental: as §6

Rap1A = experiment: Geranylgeranylation, immunoblot for non-geranylgeranylated Rap1A in macrophages; format: cell-based
Experimental: as §2, §3

MLE-12 cells = experiment: Mitochondrial H2O2 generation in MLE-12 cells exposed to chrysotile (pHPA assay); format: cell-based; settings: FIG. 11G, DGBP 10 μM overnight, chrysotile 10 μg/cm^2 for 1 h
Experimental: as §5, §6, §7

Macrophages [4] = experiment: Mitochondrial H2O2 generation in macrophages exposed to chrysotile asbestos (pHPA assay); format: cell-based; settings: Example 1, FIG. 2; DGBP 10 mM; chrysotile asbestos 10 μg/cm^2; isolated mitochondria
Experimental: as §6, §1

[5] = test system: chrysotile-induced pulmonary fibrosis; experiment: Chrysotile asbestos-induced pulmonary fibrosis in mice, DGBP via subcutaneous osmotic pump; format: in vivo
Experimental: To determine the biological relevance of DGBP on oxidative stress in vivo, WT mice were exposed to asbestos (100 μg i.t.). The mice were treated with vehicle or DGBP via administration utilizing a subcutaneous osmotic pump. After 21 days, the mice were euthanized, and lung oxidative stress was determined by GSH assay.
as §4, §1
(§8) Lung tissue was dried to stable weight and acid hydrolyzed with 6N HCl for 24 h at 120° C. Hydroxyproline concentration normalized, to dry weight of the lung, was determined as described previously (Osborn-Heaford, H. L., et al., Mitochondrial Rac1 GTPase Import and Electron Transfer from Cytochrome c Are Required for Pulmonary Fibrosis. The Journal of biological chemistry, 2012. 287(5): p. 3301-12).
(§9) Reduced and oxidized glutathione in the lung were determined as described previously (He, C., et al., Mitochondrial Cu,Zn-Superoxide Dismutase Mediates Pulmonary Fibrosis by Augmenting H2O2 Generation. J Biol Chem, 2011. 286(17): p. 15597-607).
as §2
To determine if geranylgeranylation of Rac1 is associated with other forms of pulmonary fibrosis, the role of DGBP in modulating chrysotile-induced pulmonary fibrosis was tested. WT mice with subcutaneous osmotic pumps delivering vehicle or DGBP were exposed to chrysotile as previously described (He, C., et al., Mitochondrial Cu,Zn-Superoxide Dismutase Mediates Pulmonary Fibrosis by Augmenting H2O2 Generation. J Biol Chem, 2011. 286(17): p. 15597-607, Osborn-Heaford, H. L., et al., Mitochondrial Rac1 GTPase Import and Electron Transfer from Cytochrome c Are Required for Pulmonary Fibrosis. The Journal of biological chemistry, 2012. 287(5): p. 3301-12, Murthy, S., et al., Rac1-mediated Mitochondrial H2O2 Generation Regulates MMP-9 Gene Expression in Macrophages via Inhibition of SP-1 and AP-1. J Biol Chem, 2010. 285(32): p. 25062-73). It was first determined if DGBP altered mitochondrial Rac1 localization in BAL cells. Alveolar macrophages were obtained by BAL 21 days after chrysotile exposure. […] Lung oxidative stress was also evaluated. […]

[6] = test system: bleomycin-induced pulmonary fibrosis; experiment: Bleomycin-induced pulmonary fibrosis in mice, DGBP via subcutaneous osmotic pump; format: in vivo
Experimental: as §4, §1, §8, §9, §2
Active TGF-β in BAL fluid was measured by ELISA (R&D, Minneapolis, Minn.), according to manufacturer's instructions.
Because bleomycin increased mitochondrial oxidative stress in alveolar macrophages in vivo, it was next evaluated if bleomycin modulates Rac1 mitochondrial import. Osmotic pumps containing either vehicle (water) or DGBP were implanted subcutaneously in WT mice. DGBP was delivered at a dose of 0.2 mg/kg/day. Mice were exposed to saline or bleomycin the following day, and BAL was performed 21 days later to obtain alveolar macrophages. Mitochondria were isolated to investigate Rac1 localization.

Substance: digeranyl bisphosphonate [DGBP]
- mitochondrial Rac1 import (Rac1; Example 1, FIG. 3A, chrysotile asbestos 10 μg/cm^2 for 1 h): inhibited mitochondrial Rac1 import in a dose-dependent manner
- localization of Rac1 to the mitochondria (Rac1; 1 mM DGBP overnight, chrysotile 10 μg/cm^2 for 90 min): Chrysotile induced localization of Rac1 to the mitochondria
- localization of Rac1 to the mitochondria (Rac1; 10 mM DGBP overnight, presence or absence of chrysotile): Rac1 was absent from the mitochondria
- apparent toxicity [1]: not associated with apparent toxicity in vitro or in vivo
- lung collagen deposition (Masson's trichrome) ([2]; FIG. 10C, DGBP 0.2 mg/kg/day from seven days after bleomycin, 21 days after bleomycin): small patches of collagen deposition, but there was significantly less collagen compared to mice that received vehicle
- lung hydroxyproline content ([2]; FIG. 10D, DGBP from seven days after bleomycin, vs vehicle): significantly less hydroxyproline
- mitochondrial H2O2 generation (HLF-1 cells): increased H2O2 in the presence or absence of chrysotile
- mitochondrial H2O2 generation (THP-1 cells): reduced chrysotile-induced H2O2 significantly at all time points
- H2O2 generation (Macrophages [3]; Example 1, FIG. 1, DGBP 10 mM, chrysotile asbestos 10 μg/cm^2): significant reduction in H2O2 to control levels
- H2O2 levels (Macrophages [3]; Example 2, FIG. 8F, DGBP 10 mM overnight, presence and absence of chrysotile 10 μg/cm^2, 90 min): decreased H2O2 to control levels
- geranylgeranylation (Rap1A immunoblot) (Rap1A; Example 1, FIG. 3B, whole cell lysates): inhibition of geranylgeranylation
- Rap1A geranylgeranylation (Rap1A; Example 2, FIG. 8E, 10 mM DGBP, isolated cytoplasm): impaired Rap1A geranylgeranylation
- mitochondrial H2O2 generation (MLE-12 cells): increased H2O2 generation in cells exposed to chrysotile
- mitochondrial H2O2 generation (Macrophages [4]): abrogated asbestos-induced mitochondrial H2O2 generation below control levels
- lung oxidative stress (GSH assay) ([5]; Example 1, FIG. 4, asbestos 100 μg i.t., after 21 days, vs vehicle): significant reduction in lung oxidative stress
- pulmonary fibrosis (hydroxyproline assay) ([5]; Example 1, FIG. 5, chrysotile asbestos 100 μg i.t., 21 days, vs vehicle): significantly less pulmonary fibrosis
- oxidized GSH (% GSSG) in the lung, vehicle relative to DGBP ([5]; FIG. 11B, chrysotile, 21 days): 2.5 fold
- lung histology (Masson's trichrome) ([5]; FIG. 11D, chrysotile, after 21 days): essentially normal
- lung hydroxyproline ([5]; FIG. 11E, chrysotile, after 21 days, water vs DGBP): confirmed by hydroxyproline assay
- pulmonary fibrosis (hydroxyproline assay) ([6]; Example 1, FIG. 6, bleomycin 2.0 U/kg i.t., 21 days, vs vehicle): significantly less pulmonary fibrosis
- immunoreactive Rac1 in alveolar macrophage mitochondria ([6]; FIG. 9B, DGBP 0.2 mg/kg/day, bleomycin 2.0 U/kg, BAL 21 days later): significant reduction in immunoreactive Rac1 in mitochondria
- non-geranylgeranylated Rap1A in BAL cells ([6]; FIG. 9B, DGBP 0.2 mg/kg/day, immunoblot): non-geranylgeranylated Rap 1A was increased
- oxidized GSH (% GSSG) in lung, vehicle vs DGBP ([6]; FIG. 9C, bleomycin, after 21 days): significantly higher oxidized GSH (% GSSG) than the lungs of mice that received DGBP
- active TGF-β in BAL fluid, vehicle relative to DGBP ([6]; FIG. 9D, bleomycin, DGBP 0.2 mg/kg/day, ELISA): greater than 5 fold
- lung histology (Masson's trichrome) ([6]; FIG. 9F, bleomycin): normal lung architecture
- lung hydroxyproline ([6]; FIG. 9G, following bleomycin exposure, vs vehicle): significantly less hydroxyproline

Source: US9416149B2, “Methods to modulate Rac1 import and to treat pulmonary fibrosis” (University of Iowa Research Foundation, priority 2013, dated 2016)
